From patent US12121530B2, “Composition and methods for treating articulating joint disorders with nucleoside reverse transcriptase inhibitors” (RHODE ISLAND HOSPITAL, priority 2018, dated 2024) come the findings set out here.

Series [1] relates to HIV patients. The experiment in a line: summary data of NRTI on OA in HIV patients. The series is classed as in vivo, human. To be noted: for strict OA (ICD-9-CM 715) / expanded OA (ICD-9-CM 715, 716 or 719): HIV patients; for strict OA (ICD-9-CM 715): older than 50, dosage dependent, both male and female. From the text: Medical provider diagnoses of ICD-9-CM 715 [osteoarthrosis and allied disorders] include the following definitions: 1) strict=ICD-9-CM 715; 2) expanded=ICD-9-CM 715, 716 [other and unspecified arthropathies], OR 719 [other and unspecified disorders of joint]); and 3) probable=strict OR expanded+respondent-reported prior diagnosis of OA or other arthritis excluding rheumatoid arthritis (RA).

Series [2] deals with Line-1. In words: siRNA against Line-1 in mouse primary chondrocytes, RT-qPCR. The note with it: for Line-1 expression: siRNA screening, versus scramble siRNA. The series is classed as cell-based. As for the experimental part:
Cells were seeded onto desired size plates to reach 70-90% confluence and transfected with miR-365 mimic or miRNA mimic negative control or miR-365 inhibitor or inhibitor negative control (Dharmacon®, Lafayette, Colo., USA). Lipofectamine 3000 (Invitrogen®, Waltham, Mass., USA) was used as transfection reagents. Medium is changed 24 hrs after transfection. 48 hrs post transfection, cells were lysated in either QIAzol for RNA purification and real-time PCR analysis or ice-cold lysis buffer containing protease inhibitor and phosphatase inhibitor for western blot analysis. MiR-365 mimic, miRNA mimic negative control, miR-365 inhibitor and inhibitor negative control were typically used at a final concentration of 25 nM unless otherwise stated.
Both miRNA and mRNA were extracted using miRNeasy Mini Kit (Qiagen®, Germantown, Md., USA) and reversely transcribed using miScriptIIRT Kit (Qiagen®, Germantown, Md., USA) according to manufacturer's instruction. qPCR was performed using SYBR Green PCR master mix (Qiagen®, Germantown, Md., USA) on a Bio-Rad CFX96 real-time PCR detection system (Bio-Rad®, Hercules, Calif., USA). Amplification conditions are as follows: 95° C. for 10 min, 40 cycles of 95° C. for 10″, 55° C. for 30″, and 72° C. for 30″. 18S ribosomal or GAPDH RNA was used as an internal control gene to normalize the mRNAs level. The ubiquitously expressed snRNA U6 was used as an endogenous control for miRNAs level. Primers were synthesized by Integrated DNA Technologies (http://www.idtdna.com). The primers for miR-365 were purchased from Qiagen. Fold changes of mRNA and miRNAs were calculated by the 2^^(ΔΔCt) method and normalized to 18S/GAPDH or U6 snRNA, respectively.

The mark [3] stands for this setting: mouse PC transfected with miR-365 mimic.

In the case of `Nc1nc(NC2CC2)c2ncn([C@H]3C=C[C@@H](CO)C3)c2n1` [ABC, abacavir], the “strict OA (ICD-9-CM 715)” value in series [1] is given as “inhibiting”.

Regarding `Cc1cn([C@H]2C=C[C@@H](CO)O2)c(=O)[nH]c1=O` [D4T, 2′,3′-didehydro-2′,3′-dideoxythymidine], in series [1], the “expanded OA (ICD-9-CM 715, 716 or 719)” value is listed as “inhibiting” and the “strict OA (ICD-9-CM 715)” value is listed as “inhibiting”. In addition, the “extent of inhibition of strict OA and expanded OA” value in series [1] (among NRTIs) is “highest extent of inhibition”.

As to `O=c1nc[nH]c2c1ncn2[C@H]1CC[C@@H](CO)O1` [DDL, 2′,3′-dideoxyinosine], in series [1], the “expanded OA (ICD-9-CM 715, 716 or 719)” value is on record as “inhibiting” and the “strict OA (ICD-9-CM 715)” value is listed as “inhibiting”. Moreover, the toxicity entry in series [1] (group of less than 40 years old) is on record as “No toxicity”.

Consider `Cc1cn([C@H]2C[C@H](N=[N+]=[N-])[C@@H](CO)O2)c(=O)[nH]c1=O` [ZDV, Zidovudine], for which, in series [1], the “expanded OA (ICD-9-CM 715, 716 or 719)” value is recorded as “partially inhibiting” and the “strict OA (ICD-9-CM 715)” value was “inhibiting”.

In the case of “siLine-1C: siRNA against Line-1, AAGCCACTATTACTCTGATAC (SEQ ID NO: 95) (AAGCCACTATTACTCTGATAC; listed as DNA, chemistry not given here)”, the Line-1 expression entry in series [2] is “significantly suppressed”.

Regarding “siLine-1D: siRNA against Line-1, AAGGTCAAATCTAAGTGGATC (SEQ ID NO: 96) (AAGGTCAAATCTAAGTGGATC; listed as DNA, chemistry not given here)”, in series [2] (co-transfected with miR-365 (FIG. 1D-1I)), the “miR-365-elicited gene expression changes (L1, Adamts5, Mmp3, Ihh, Col2a1, Acan)” value is recorded as “abolished”. In series [2] (setting [3]), the “miR-365 led induction of Ihh” value was “successfully rescued” and the “miR-365 led induction of Line-1” value is on record as “successfully rescued”. Also, the Line-1 expression result in series [2] was “significantly suppressed”.

Turning to “siLine-1E: siRNA against Line-1, AAGTTTCTGCAAGGCAAAAGA (SEQ ID NO: 97) (AAGTTTCTGCAAGGCAAAAGA; listed as DNA, chemistry not given here)”, the Line-1 expression entry in series [2] is listed as “significantly suppressed”.
